How the values were obtained:
Type in all cases: in vivo, mice
B16 Melanoma [1] = test: B16 Melanoma - Test 1 (ip tumor brei); conditions: for Survivors Day 5(60): QD 1→9, vehicle Saline
B16 Melanoma [2] = test: B16 Melanoma - Test 3 (sc trocar fragments)
Lewis Lung Carcinoma = Lewis Lung Carcinoma - Test 1 (ip, delayed therapy)

N.N.[Cl][Pt][Cl] [Cis-DDP, cis-diammine dichloroplatinum (II)]
Survivors Day 5(60) (B16 Melanoma [1]; 0.8 mg/kg/day ip): 10/10 | Survivors Day 5(60) (B16 Melanoma [1]; 1.6 mg/kg/day ip): 9/9 | Survivors Day 5(60) (B16 Melanoma [1]; 2.0 mg/kg/day ip): 8/10 | mice cured (B16 Melanoma [1]; ip B16, at the dose of maximum T/C): no cures | maximum T/C (B16 Melanoma [1]; ip B16, ip QD 1→9): 174% | Average Weight Change (B16 Melanoma [2]; 0.8 mg/kg/inj ip, qd 1→9): -0.4 g | Effect MST %TC (B16 Melanoma [2]; 0.8 mg/kg/inj ip, qd 1→9): 113 %TC | MST Days (B16 Melanoma [2]; 0.8 mg/kg/inj ip, qd 1→9): 34.5 days | Average Weight Change (B16 Melanoma [2]; 1.6 mg/kg/inj ip, qd 1→9): -2.4 g | Effect MST %TC (B16 Melanoma [2]; 1.6 mg/kg/inj ip, qd 1→9): 118 %TC | MST Days (B16 Melanoma [2]; 1.6 mg/kg/inj ip, qd 1→9): 36.0 days | Average Weight Change (B16 Melanoma [2]; 2.4 mg/kg/inj ip, qd 1→9): -3.5 g | Effect MST %TC (B16 Melanoma [2]; 2.4 mg/kg/inj ip, qd 1→9): 97 %TC | MST Days (B16 Melanoma [2]; 2.4 mg/kg/inj ip, qd 1→9): 29.5 days | Average Weight Change (B16 Melanoma [2]; 4 mg/kg/inj iv, d.1, 5 & 9): -0.6 g | Effect MST %TC (B16 Melanoma [2]; 4 mg/kg/inj iv, d.1, 5 & 9): 156 %TC | MST Days (B16 Melanoma [2]; 4 mg/kg/inj iv, d.1, 5 & 9): 47.5 days | Average Weight Change (B16 Melanoma [2]; 6 mg/kg/inj iv, d.1, 5 & 9): -2.2 g | Effect MST %TC (B16 Melanoma [2]; 6 mg/kg/inj iv, d.1, 5 & 9): 131 %TC | MST Days (B16 Melanoma [2]; 6 mg/kg/inj iv, d.1, 5 & 9): 40.0 days | Average Weight Change (B16 Melanoma [2]; 8 mg/kg/inj iv, d.1, 5 & 9): -2.8 g | Effect MST %TC (B16 Melanoma [2]; 8 mg/kg/inj iv, d.1, 5 & 9): 125 %TC | MST Days (B16 Melanoma [2]; 8 mg/kg/inj iv, d.1, 5 & 9): 38.0 days | Survivors Day 10 (60) (B16 Melanoma [2]; 8 mg/kg/inj iv, d.1, 5 & 9): 9/10 | T/C (B16 Melanoma [2]; given ip, sc-implanted B16 melanoma): inactive | maximum T/C (B16 Melanoma [2]; given iv, sc-implanted B16 melanoma): 156% | Av. Wt. Change,g Day 9 (Lewis Lung Carcinoma; 0.4 mg/kg/inj ip, qd 5→13): -0.4 g | Effect MST %TC (Lewis Lung Carcinoma; 0.4 mg/kg/inj ip, qd 5→13): 124 %TC | MST Days (Lewis Lung Carcinoma; 0.4 mg/kg/inj ip, qd 5→13): 15.5 days | Av. Wt. Change,g Day 9 (Lewis Lung Carcinoma; 0.8 mg/kg/inj ip, qd 5→13): -0.6 g | Effect MST %TC (Lewis Lung Carcinoma; 0.8 mg/kg/inj ip, qd 5→13): 136 %TC | MST Days (Lewis Lung Carcinoma; 0.8 mg/kg/inj ip, qd 5→13): 17.0 days | Av. Wt. Change,g Day 9 (Lewis Lung Carcinoma; 1.6 mg/kg/inj ip, qd 5→13): -1.8 g | Effect MST %TC (Lewis Lung Carcinoma; 1.6 mg/kg/inj ip, qd 5→13): 184 %TC | MST Days (Lewis Lung Carcinoma; 1.6 mg/kg/inj ip, qd 5→13): 23.0 days | Av. Wt. Change,g Day 9 (Lewis Lung Carcinoma; 2 mg/kg/inj ip, d. 5, 9&13): +0.8 g | Effect MST %TC (Lewis Lung Carcinoma; 2 mg/kg/inj ip, d. 5, 9&13): 152 %TC | MST Days (Lewis Lung Carcinoma; 2 mg/kg/inj ip, d. 5, 9&13): 19.0 days | Av. Wt. Change,g Day 9 (Lewis Lung Carcinoma; 2 mg/kg/inj iv, d. 5,9&13): +0.6 g | Effect MST %TC (Lewis Lung Carcinoma; 2 mg/kg/inj iv, d. 5,9&13): 104 %TC | MST Days (Lewis Lung Carcinoma; 2 mg/kg/inj iv, d. 5,9&13): 13.0 days | Av. Wt. Change,g Day 9 (Lewis Lung Carcinoma; 2.4 mg/kg/inj ip, qd 5→13): -2.4 g | Effect MST %TC (Lewis Lung Carcinoma; 2.4 mg/kg/inj ip, qd 5→13): 212 %TC | MST Days (Lewis Lung Carcinoma; 2.4 mg/kg/inj ip, qd 5→13): 26.5 days | Av. Wt. Change,g Day 9 (Lewis Lung Carcinoma; 4 mg/kg/inj ip, d. 5, 9&13): -0.3 g | Effect MST %TC (Lewis Lung Carcinoma; 4 mg/kg/inj ip, d. 5, 9&13): 168 %TC | MST Days (Lewis Lung Carcinoma; 4 mg/kg/inj ip, d. 5, 9&13): 21.0 days | Av. Wt. Change,g Day 9 (Lewis Lung Carcinoma; 4 mg/kg/inj iv, d. 5,9&13): -0.7 g | Effect MST %TC (Lewis Lung Carcinoma; 4 mg/kg/inj iv, d. 5,9&13): 120 %TC | MST Days (Lewis Lung Carcinoma; 4 mg/kg/inj iv, d. 5,9&13): 15.0 days | Av. Wt. Change,g Day 9 (Lewis Lung Carcinoma; 6 mg/kg/inj ip, d. 5, 9&13): -0.8 g | Effect MST %TC (Lewis Lung Carcinoma; 6 mg/kg/inj ip, d. 5, 9&13): 220 %TC | MST Days (Lewis Lung Carcinoma; 6 mg/kg/inj ip, d. 5, 9&13): 27.5 days | Av. Wt. Change,g Day 9 (Lewis Lung Carcinoma; 6 mg/kg/inj iv, d. 5,9&13): -1.1 g | Effect MST %TC (Lewis Lung Carcinoma; 6 mg/kg/inj iv, d. 5,9&13): 108 %TC | MST Days (Lewis Lung Carcinoma; 6 mg/kg/inj iv, d. 5,9&13): 13.5 days | Av. Wt. Change,g Day 9 (Lewis Lung Carcinoma; 8 mg/kg/inj ip, d. 5, 9&13): -2.7 g | Effect MST %TC (Lewis Lung Carcinoma; 8 mg/kg/inj ip, d. 5, 9&13): 128 %TC | MST Days (Lewis Lung Carcinoma; 8 mg/kg/inj ip, d. 5, 9&13): 16.0 days | Av. Wt. Change,g Day 9 (Lewis Lung Carcinoma; 8 mg/kg/inj iv, d. 5,9&13): -0.7 g | Effect MST %TC (Lewis Lung Carcinoma; 8 mg/kg/inj iv, d. 5,9&13): 112 %TC | MST Days (Lewis Lung Carcinoma; 8 mg/kg/inj iv, d. 5,9&13): 14.0 days | Survivors Day 9(48) (Lewis Lung Carcinoma; 0.4 mg/kg/inj ip, qd 5→13): 6/6 | Survivors Day 9(48) (Lewis Lung Carcinoma; 0.8 mg/kg/inj ip, qd 5→13): 5/6 | Survivors Day 9(48) (Lewis Lung Carcinoma; 1.6 mg/kg/inj ip, qd 5→13): 6/6 | Survivors Day 9(48) (Lewis Lung Carcinoma; 2 mg/kg/inj ip, d. 5, 9&13): 6/6 | Survivors Day 9(48) (Lewis Lung Carcinoma; 2 mg/kg/inj iv, d. 5,9&13): 6/6 | Survivors Day 9(48) (Lewis Lung Carcinoma; 2.4 mg/kg/inj ip, qd 5→13): 6/6 | Survivors Day 9(48) (Lewis Lung Carcinoma; 4 mg/kg/inj ip, d. 5, 9&13): 6/6 | Survivors Day 9(48) (Lewis Lung Carcinoma; 4 mg/kg/inj iv, d. 5,9&13): 6/6 | Survivors Day 9(48) (Lewis Lung Carcinoma; 6 mg/kg/inj ip, d. 5, 9&13): 6/6 | Survivors Day 9(48) (Lewis Lung Carcinoma; 6 mg/kg/inj iv, d. 5,9&13): 6/6 | Survivors Day 9(48) (Lewis Lung Carcinoma; 8 mg/kg/inj ip, d. 5, 9&13): 6/6 | Survivors Day 9(48) (Lewis Lung Carcinoma; 8 mg/kg/inj iv, d. 5,9&13): 6/6 | maximum T/C (Lewis Lung Carcinoma; given ip, therapy from day 5): 212-220% | T/C (Lewis Lung Carcinoma; given iv, therapy from day 5): inactive

From EP0041644B1 (priority 1980, dated 1981)
